In one data set the test system is blood glucose. The data set can be described thus: Hypoglycemic effect of insulin-loaded microneedle drug delivery apparatus in minipigs. Particulars: delivered into duodenum by gastroscope, real-time blood glucose over 4 hours. In kind it is in vivo, experimental minipigs. The text has this: Considering the similarities between pigs and humans in the structure of the digestive system and physiological functions, experimental minipigs were used as the animal model for functional verification of the apparatus in this example. To prevent the pigs' chewing behavior from damaging the microneedle drug delivery apparatus and to take the individual variations in gastric emptying time into account, in this example, after anesthetizing the pigs, the microneedle drug delivery apparatus prepared in Example 2 was delivered into the pigs' duodenum using a gastroscope, and this moment was defined as time zero, the beginning of monitoring of the drug concentration in serum and the drug delivery effect. Central venous blood samples were collected every 20 minutes for a continuous time period of 4 hours. Real-time blood glucose was measured using a portable blood glucose meter, and the results were illustrated in FIG. 13 and FIG. 14.

A short description of data set [1]: Bioavailability of insulin from serum pharmacokinetic curve (human insulin ELISA). In kind it is in vivo, experimental minipigs. The note with it: minipigs, (AUC/dose) relative to subcutaneous injection group, serum insulin over 4 hours. The text has this: Considering the similarities between pigs and humans in the structure of the digestive system and physiological functions, experimental minipigs were used as the animal model for functional verification of the apparatus in this example. To prevent the pigs' chewing behavior from damaging the microneedle drug delivery apparatus and to take the individual variations in gastric emptying time into account, in this example, after anesthetizing the pigs, the microneedle drug delivery apparatus prepared in Example 2 was delivered into the pigs' duodenum using a gastroscope, and this moment was defined as time zero, the beginning of monitoring of the drug concentration in serum and the drug delivery effect. Central venous blood samples were collected every 20 minutes for a continuous time period of 4 hours. Excess blood was placed in a coagulation tube, left to stand for approximately 40 minutes, and then centrifuged to separate the serum. […] Calculating the area under this curve (AUC) can be used to compare the bioavailability of different drug delivery methods. […] The bioavailability was calculated as the ratio of the area under the pharmacokinetic curve (AUC)/administered dose of the test group to the corresponding value of the subcutaneous injection group, for evaluating the efficiency of a drug delivery method. […]
A general note: An ELISA detects its analyte on a solid surface through an enzyme-linked reagent.

On to human recombinant insulin, for which the hypoglycemic effect result with blood glucose was “poor hypoglycemic effect”. For the same substance, in data set [1], the bioavailability was 0.6%.
